In patent publication US11390625B2, “Aryl-phosphorus-oxygen compound as EGFR kinase inhibitor” (Chia Tai Tianqing Pharmaceutical Group Co., Ltd., priority 2017, dated 2022):

What was measured:
[1] = tested on: Ba/F3 (EGFR Δ19del/T790M/C797S) cells; assay: Anti-proliferation experiment on cells (2), Ba/F3 (EGFR Δ19del/T790M/C797S); assay type: cell-based; conditions: for IC50: Ba/F3 EGFR, 72 h, Ba/F3 cells, 3 days, read-out: anti-proliferation effect on cells Ba/F3(Δ19del/T790M/C797S) IC50
Experimental: The compounds ware transferred to a 384-well plate, with 125 nL of compound per well. […] After 3 days, 25 μL of detection reagent was added. The plate was incubated at room temperature for 10 minutes and then read with Envision.

[2] = target: EGFR (Δ19del/T790M/C797S) (Homo sapiens, UniProt P00533, C797S/T790M, form not given); assay: Enzyme activity experiment (1): EGFR (Δ19del/T790M/C797S) enzyme inhibition; assay type: biochemical; conditions: read-out: EGFR (Δ19del/T790M/C797S) IC50
Sequence of EGFR (Δ19del/T790M/C797S) (P00533 25-1210 T790M/C797S limits assumed, form open): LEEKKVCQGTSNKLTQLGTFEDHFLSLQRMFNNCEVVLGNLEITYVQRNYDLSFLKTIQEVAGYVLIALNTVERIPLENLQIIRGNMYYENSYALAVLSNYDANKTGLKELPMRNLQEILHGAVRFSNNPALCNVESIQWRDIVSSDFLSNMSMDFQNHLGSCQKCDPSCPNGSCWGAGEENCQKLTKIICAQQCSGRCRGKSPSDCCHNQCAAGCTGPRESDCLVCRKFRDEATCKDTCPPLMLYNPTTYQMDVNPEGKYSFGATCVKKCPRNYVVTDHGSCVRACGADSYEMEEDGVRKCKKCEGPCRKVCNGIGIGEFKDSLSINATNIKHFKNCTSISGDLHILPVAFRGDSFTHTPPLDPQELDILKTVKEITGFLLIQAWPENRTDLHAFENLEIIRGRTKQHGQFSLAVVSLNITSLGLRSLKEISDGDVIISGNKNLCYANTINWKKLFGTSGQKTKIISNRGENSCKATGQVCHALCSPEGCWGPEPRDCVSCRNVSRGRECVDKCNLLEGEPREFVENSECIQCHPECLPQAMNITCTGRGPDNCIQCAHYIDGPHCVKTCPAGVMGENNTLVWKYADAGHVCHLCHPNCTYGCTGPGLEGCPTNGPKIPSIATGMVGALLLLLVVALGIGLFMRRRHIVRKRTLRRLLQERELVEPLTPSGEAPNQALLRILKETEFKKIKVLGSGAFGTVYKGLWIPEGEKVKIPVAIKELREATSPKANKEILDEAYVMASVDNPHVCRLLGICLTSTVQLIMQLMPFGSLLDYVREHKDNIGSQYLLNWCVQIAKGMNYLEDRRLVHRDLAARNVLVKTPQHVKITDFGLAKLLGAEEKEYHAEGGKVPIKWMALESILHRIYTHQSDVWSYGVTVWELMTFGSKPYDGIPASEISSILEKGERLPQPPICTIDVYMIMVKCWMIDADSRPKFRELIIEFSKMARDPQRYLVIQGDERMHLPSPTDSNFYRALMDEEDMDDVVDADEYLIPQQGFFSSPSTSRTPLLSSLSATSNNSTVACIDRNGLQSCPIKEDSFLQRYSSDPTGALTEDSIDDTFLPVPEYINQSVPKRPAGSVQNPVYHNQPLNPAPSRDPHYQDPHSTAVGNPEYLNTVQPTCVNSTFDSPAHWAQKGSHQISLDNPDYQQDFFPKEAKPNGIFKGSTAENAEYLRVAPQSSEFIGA
Experimental: 1) 10 μL of the compounds to be tested and reference compounds diluted to 10 mM were taken into an Echo LDV plate, which were diluted according to the compound profile with Echo.
1) 1×enzyme reaction buffer was prepared: 1× enzyme buffer, 5 mM MgCl2, 1 mM DTT (dithiothreitol), water.
2) A mixed solution of 10 nM enzyme (final concentration of 5 nM) and 2 μM substrate (final concentration of 1 μM) and a solution containing the substrate alone were prepared with the diluted enzyme reaction buffer.
3) 5 μL of the substrate was added into A1-H1, J24-P24 (the number of the well position), and 5 μL of the mixture of the enzyme and substrate was added into the remaining wells.
4) Centrifugation was performed at 1000 rpm at 23° C. for 30 s.
5) Incubation was performed at 23° C. for 15 min.
7) Centrifugation was performed at 1000 rpm at 23° C. for 30 s.
8) Incubation was performed at 23° C. for 60 min.
9) 10 μL of 250 nM TK Antibody-Crypate (a final concentration of 125 nM) and 1×D2 (a final concentration ½ time) prepared with Detection buffer were added.
10) Centrifugation was performed at 1000 rpm at 23° C. for 30 s.
11) Incubation was performed at 23° C. for 60 min.
12) The data was read with Envision, and the ratio was calculated to obtain the IC50 of the compound for inhibiting the enzyme activity.

[3] = tested on: pEGFR Ba/F3 (EGFR Δ19del/T790M/C797S) cells; assay: Cell phosphorylation inhibition experiment, pEGFR Ba/F3 (EGFR Δ19del/T790M/C797S); assay type: cell-based; conditions: for IC50: Ba/F3 EGFR, Ba/F3 cells, EGF stimulated, read-out: Effect on cellular EGFR phosphorylation Ba/F3(Δ19del/T790M/C797S) IC50
Experimental: The test compounds and reference compounds were diluted with 100% DMSO to 10 mM or 1 mM, and then a gradient dilution was performed by using Echo, 150 nL per well, with a three-fold concentration gradient and a ten-point dose response curve. The final concentration of the compounds was 100 μM or 10 μM. The suspension cells was centrifuged at 1000 rp for 5 minutes, suspend in Hanks' balanced salt solution, and added to a 384-well plate containing the compounds at 10 L/120K/well (the cell density of 1.2×10^7), followed by centrifugation at 1200 rpm for 30 s and incubation at 37° C. for 30 min. 5 μL of EGF (which has been diluted with 0.1% BSA Hanks' balanced salt solution) was added to each well, in which the final concentration of EGF was 1 μM. The plate was centrifuged at 1200 rpm for 30 s and incubated at 37° C. for 20 min. 5 μL of 4× lysis buffer containing blocking solution was added to each well, and then the plate was centrifuged at 1200 rpm for 30 s, and incubated at 37° C. for 30 min.

[4] = tested on: Ba/F3 (Δ19del/T790M/C797S) xenograft; assay: In vivo efficacy (1): Ba/F3 (Δ19del/T790M/C797S) subcutaneous xenograft (CDX) in BALB/c nude mice;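 further: female nude mice, dosing begun at mean tumor size near 80–120 mm^3, tumors measured by caliper twice weekly, volume in mm^3 computed as 0.5×long×short diameter squared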
Experimental: BALB/c nude mice, female, 6-8 weeks old, 18-20 g of body weight, were housed in SPF-grade environment, and each cage was individually ventilated (5 mice per cage). […] A total of 48 mice purchased from Beijing Weitonglihua company were used for the study. Each mouse was implanted with cells at the right flank, for tumor growth. The experiment was started when the average tumor volume reached approximately 80-120 mm^3. […] Tumor volume was measured twice a week with a two-dimensional caliper, measured in mm^3 and calculated by the following formula: V=0.5a×b^2, wherein a and b are the long and short diameters of the tumor, respectively. Antitumor efficacy was determined by dividing the average increase of the tumor volume of the animals treated with the compound by the average increase of the tumor volume of the untreated animals.

| Structure (SMILES) | IC50 [1] | other results |
| --- | --- | --- |
| COc1ccc(OCCNCc2cnccn2)cc1Nc1ncc(Cl)c(Nc2ccc3ccccc3c2P(C)(C)=O)n1 [Compound 18] | 1650 nM | IC50 [2]: 25.3 nM |
| COc1cc(N2CCC3(CCN(C)CC3)CC2)c(Cl)cc1Nc1ncc(Cl)c(Nc2ccc3c(c2P(C)(C)=O)C(=O)CC3)n1 [Compound 14] | 351 nM | – |
| COc1cc(N2CCC3(CC2)CN(C)C3)c(C)cc1Nc1ncc(Cl)c(Nc2ccc3c(ccn3C)c2P(C)(C)=O)n1 [Compound 15] | 583 nM | – |
| COc1cc(N2CCC(N3CCN(C)CC3)CC2)c(Cl)cc1Nc1ncc(Cl)c(Nc2ccc3ccccc3c2P(C)(C)=O)n1 [Compound 11] | 180 nM | – |
| COc1cc(N2CCC3(CC2)CN(C)C3)c(C)cc1Nc1ncc(OC(=O)N(C)C)c(Nc2ccc3ccccc3c2P(C)(C)=O)n1 [Compound 17] | 4750 nM | IC50 [2]: 856 nM |
| COc1ccc(OCCNCc2cccnc2)cc1Nc1ncc(Cl)c(Nc2ccc3ccccc3c2P(C)(C)=O)n1 [Compound 19] | 1220 nM | IC50 [2]: 12.9 nM |
| COc1cc(N2CCC3(CC2)CN(C)C3)c(C)cc1Nc1ncc(C(C)=O)c(Nc2ccc3ccccc3c2P(C)(C)=O)n1 [Compound 24] | 4080 nM | – |
| COc1cc(N2CCC(N(C)C)CC2)c(C)cc1Nc1ncc(Br)c(Nc2ccc3nccnc3c2P(C)(C)=O)n1 [Compound 44] | – | IC50 [3]: 9 nM |
| COc1cc(N2CCC3(CC2)CN(C)C3)c(C)cc1Nc1nc(Nc2ccc3ccccc3c2P(C)(C)=O)c2cc[nH]c2n1 [Compound 22] | 249 nM | – |
| COc1cc(N2CCC3(CC2)CN(C)C3)c(C)cc1Nc1ncc(Cl)c(Nc2ccc3nccnc3c2P(C)(C)=O)n1 [Compound 8] | 275 nM | IC50 [3]: 133 nM; IC50 [2]: 0.792 nM |
| COc1cc(N2CCC3(CC2)CN(CCN(C)C)C3)c(C)cc1Nc1ncc(Cl)c(Nc2ccc3ccccc3c2P(C)(C)=O)n1 [Compound 20] | 214 nM | IC50 [2]: < 0.0508 nM |
| COc1cc(N2CCC3(CC2)CN(C)C3)c(C)cc1Nc1ncc(C2CC2)c(Nc2ccc3ccccc3c2P(C)(C)=O)n1 [Compound 25] | 642 nM | IC50 [2]: 1.79 nM |
| COc1cc(N2CCC3(CCN(C)CC3)CC2)c(Cl)cc1Nc1ncc(Cl)c(Nc2ccc3sccc3c2P(C)(C)=O)n1 [Compound 1] | – | IC50 [2]: 2.64 nM |
| COc1cc(N2CCC(N3CCN(C)CC3)CC2)ccc1Nc1ncc(Cl)c(Nc2ccc3cccnc3c2P(C)(C)=O)n1 [Compound 7] | – | IC50 [3]: 533 nM |
| COc1cc(N2CCC3(CC2)CN(C)C3)c(C)cc1Nc1ncc(Cl)c(Nc2ccc3c(c2P(C)(C)=O)CCC3)n1 [Compound 16] | 211 nM | IC50 [2]: 0.491 nM |
| COc1cc(N2CCC(N3CCN(C)CC3)CC2)ccc1Nc1ncc(Cl)c(Nc2ccc3[nH]cnc3c2P(C)(C)=O)n1 [Comparative Example 1, reference compound] | > 5000 nM | IC50 [3]: 1010 nM; inhibitory effect on the phosphorylation of Ba/F3 (Δ19del/T790M/C797S) cells ([3]; in words): almost no inhibitory effect; inhibitory effect on Ba/F3 cells with three mutations (EGFR Δ19del/T790M/C797S) ([1]; in words): almost no inhibitory effect |
| COc1cc(N2CCC3(CCN(C)CC3)CC2)c(Cl)cc1Nc1ncc(Cl)c(Nc2ccc3cccnc3c2P(C)(C)=O)n1 [Compound 10] | 6030 nM | – |
| COc1cc(N2CCC3(CC2)CN(C)C3)c(C)cc1Nc1ncc(Br)c(Nc2ccc3ccccc3c2P(C)(C)=O)n1 [Compound 23] | 103 nM | IC50 [3]: 34 nM; IC50 [2]: 0.0517 nM |
| COc1cc(N2CCC(N3CCN(C)CC3)CC2)ccc1Nc1ncc(Cl)c(Nc2ccccc2P(C)(C)=O)n1 [Birgatinib, reference compound] | – | TGI (the tumor inhibition value) ([4]; 15 mg/kg oral daily, 13 consecutive days): 8.6%; Tumor volume Day 0 ([4]; 15 mg/kg/day oral, Day 0): 84 mm^3; Tumor volume Day 2 ([4]; 15 mg/kg/day oral, Day 2): 124 mm^3; Tumor volume Day 5 ([4]; 15 mg/kg/day oral, Day 5): 292 mm^3; Tumor volume Day 8 ([4]; 15 mg/kg/day oral, Day 8): 477 mm^3; Tumor volume Day 10 ([4]; 15 mg/kg/day oral, Day 10): 646 mm^3; Tumor volume Day 12 ([4]; 15 mg/kg/day oral, Day 12): 880 mm^3; Tumor volume Day 13 ([4]; 15 mg/kg/day oral, Day 13): 965 mm^3 |

The next lines start with results.

| IC50 [1] | Structure (SMILES) | other results |
| --- | --- | --- |
| 533 nM | COc1cc(N2CCC(N3CCN(C)CC3)CC2)ccc1Nc1ncc(Cl)c(Nc2ccc3c(c2P(C)(C)=O)CCC3)n1 [Compound 35] | – |
| 39 nM | COc1cc(N2CCC(N3CCN(C)CC3)CC2)c(Cl)cc1Nc1ncc(Br)c(Nc2ccc3nccnc3c2P(C)(C)=O)n1 [Example 54] | – |
| 162 nM | COc1cc(N2CCC3(CC2)CN(C(C)C)C3)c(C)cc1Nc1ncc(Br)c(Nc2ccc3ccccc3c2P(C)(C)=O)n1 [Compound 33] | – |
| 442 nM | COc1cc(N2CCC(N3CCN(C)CC3)CC2)ccc1Nc1ncc(Cl)c(Nc2ccc3scnc3c2P(C)(C)=O)n1 [Compound 42] | – |
| 242 nM | COc1cc(N2CCC3(CC2)CN(C(C)C)C3)c(C)cc1Nc1ncc(Cl)c(Nc2ccc3sccc3c2P(C)(C)=O)n1 [Compound 31] | – |
| 18.6 nM | CCc1cc(Nc2ncc(Br)c(Nc3ccc4nccnc4c3P(C)(C)=O)n2)c(OC)cc1N1CCC2(CCN(C)CC2)CC1 [Example 58] | – |
| 1590 nM | COc1ccc(OCCNS(C)(=O)=O)cc1Nc1ncc(Cl)c(Nc2ccc3ccccc3c2P(C)(C)=O)n1 [Compound 29] | IC50 [2]: 67.6 nM |
| 371 nM | COc1cc(N2CCC(N3CCN(C)CC3)CC2)ccc1Nc1ncc(Br)c(Nc2ccc3c(c2P(C)(C)=O)CCC3)n1 [Compound 38] | – |
| 26.8 nM | COc1cc(N2CCC3(CCN(C)CC3)CC2)c(C)cc1Nc1ncc(Br)c(Nc2ccc3nccnc3c2P(C)(C)=O)n1 [Example 57] | – |
| 2710 nM | COc1cc(N2CCC3(CC2)CN(C)C3)c(C)cc1Nc1ncc(-c2nnc(C)o2)c(Nc2ccc3ccccc3c2P(C)(C)=O)n1 [Compound 27] | – |
| 187 nM | COc1cc(N2CCC3(CC2)CN(CCN(C)C)C3)c(C)cc1Nc1ncc(Cl)c(Nc2ccc3nccnc3c2P(C)(C)=O)n1 [Compound 39] | IC50 [3]: 195 nM |
| 36 nM | COc1cc(N2CCC(N3CCN(C)CC3)CC2)c(C)cc1Nc1ncc(Br)c(Nc2ccc3scnc3c2P(C)(C)=O)n1 [Example 51] | – |
| 496 nM | COc1cc(N2CCC(N3CCN(C)CC3)CC2)ccc1Nc1ncc(Cl)c(Nc2ccc3cccnc3c2P(C)(C)=O)n1 [Compound 43] | – |
| 152 nM | COc1cc(N2CCC(N3CCN(C)CC3)CC2)c(C)cc1Nc1ncc(C)c(Nc2ccc3nccnc3c2P(C)(C)=O)n1 [Example 48] | – |
| 79 nM | CCc1cc(Nc2ncc(Br)c(Nc3ccc4ccccc4c3P(C)(C)=O)n2)c(OC)cc1N1CCC2(CC1)CN(C)C2 [Compound 32] | IC50 [3]: 57 nM |
| 87 nM | COc1cc(N2CCN(C)CC2)c(C)cc1Nc1ncc(Br)c(Nc2ccc3nccnc3c2P(C)(C)=O)n1 [Example 45] | IC50 [3]: 27 nM |
| 290 nM | COc1cc(N2CCC3(CC2)CN(CCO)C3)c(C)cc1Nc1ncc(Cl)c(Nc2ccc3ccccc3c2P(C)(C)=O)n1 [Compound 30] | – |
| 764 nM | COc1cc(N2CCC3(CC2)CN(C)C3)c(C)cc1Nc1ncc(C#N)c(Nc2ccc3ccccc3c2P(C)(C)=O)n1 [Compound 26] | IC50 [2]: 0.679 nM |
